Tests used:
[1] = tested on: BJ-5ta fibroblasts; assay: Spreading of BJ-5ta fibroblasts on linear GRRGD-TGT (peer review file); format: cell-based, human; conditions: 100 nM, 1 h
Description: RGT-TGTs is reproduced using the linear RGD, showing that the high tension threshold for cell spreading is not an artifact of ligand cyclization.
Figure R5 | BJ-5ta fibroblasts on linear RGD ligand surfaces. Cells were seeded for one hour on TGTs conjugated […]
with a linear RGD peptide ([…]; GRRGD-TGT). GRRGD-TGT (100 nM) was immobilized on […]
PEG-passivated and neutravidin functionalized surface. GRRGD-54pN was incubated without neutravidin for control. Images (left) and cell area measured from RICM images (right) are shown. Scale bar, 10 μm. […]

[2] = target: integrin α5β1 (EO state); conditions: extended-open conformation; read-out: affinity for α5β1 in extended-open conformation; cited from earlier work
Description: The response of the cytoskeletal machinery is thus not predetermined by cell type, but is highly regulatable by the type of ligand outside the cell. […] Further, by using 264 the specific panels of antibodies, the authors claim that RGD-based adhesion and spreading is dominated by 265 aVb1 integrin in their RGD-dependent system.

[3] = tested on: integrin α5β1 on intact cells; conditions: ref Li et al., 2017; read-out: affinity to α5β1 on intact cells; cited from earlier work
Description: For inhibition studies we used a different subset of inhibitory IPI and Biogen Fabs with RGD-mimetic heavy chain CDR3 sequences (Supplementary Table 1). […] They show selectivities for αVβ1, αVβ3 and αVβ5 ranging from 160 fold to 2000 fold. […] As we show in Fig.5, even though α5β1 has the highest 316 expression level among all the RGD-binding integrins expressed on BJ-5ta cell, it could not mediate cell 317 adhesion and spreading on the cyclo- ...

[4] = tested on: BJ-5ta cells; assay: Percentage of spread cells / cell spreading on TGT surfaces; format: cell-based, human
Description: Glass coverslips were densely PEGylated to minimize non-specific interactions such as the binding of cell-secreted extracellular matrix proteins. Coverslips cleaned by piranha etching solution (a 3:1 mixture of sulfuric acid and hydrogen peroxide) were incubated in silanization solution (UCT, 1760-24-3; 2% aminosilane and 5% acetic acid in methanol) for 30 min and reacted with a mixture of Polyethylene glycol (PEG) with and without biotin (1:19, 150 mg/ml; Laysan Bio, Biotin-PEG-SVA-5000 and MPEG-SVA-5000) for 4 h. Surfaces were washed thoroughly and dried using nitrogen gas after each step. A 3D-printed dish (PLA) or a silicon gasket (Grace Bio Labs, 103280) was attached to the coverslip to form a dish. Neutravidin (Thermo Fisher scientific, 31000; 0.4 mg/ml) was added to the dish for 10 min and washed out thoroughly. The dish was emptied and a droplet (3 µL) of TGT solution (100 nM unless specified otherwise) was placed on the coverslip for 10 min in a humid condition to locally immobilize TGT. For the lateral drift correction for time-resolved TGT rupture analysis, biotin-coated gold nanoparticles (Luna Nanotech, GNP-BIOT-100-2-04; 100 nm) were sparsely immobilized as fiducial markers. For protein ligand coating, protein (50 ug/ml in PBS) was incubated in glass bottomed imaging dishes for 1 h at RT without additional passivation.
The cells were gently harvested by washing in PBS for 1 min, incubating with 0.05% trypsin for 3 min, and then neutralizing with cell culture medium (FBS 10%). The cells were spun down and resuspended with Leibovitz’s L-15 Medium (Gibco, 21083027) supplemented with 2 g/L glucose, then seeded on the TGT surface at an approximate density of 30 cells/mm^2. For integrin inhibition experiments, cells were incubated with Fab for 5 min before seeding. For cell immobilization experiments, cells were incubated with 1 nM Cholesterol-PEG-Biotin (Nanosoft Polymers, 3084-2000) for 5 min, followed by washes by centrifugation to remove biotin in solution before seeding. The imaging area was humidified and the temperature was maintained at 37 °C. A Nikon Eclipse Ti microscope equipped with Xenon arc lamp, Nikon perfect focus system, custom total internal reflection fluorescence microscopy (TIRFM) module, and custom reflection interference contrast microscopy (RICM) module was driven by Elements software. Dark regions in RICM show where cells have closely adhered to the surface (≪300 nm gap). Nikon 10X objective (CFI60 Plan Fluor) and 60X objective (CFI60 Apochromat TIRF) with DIC filter sets were used. […] Images were recorded using an electron-multiplying charge-coupled device (EMCCD; Andor iXon 888).
Single-cell data were obtained from multiple independent sample preparations for each condition as specified. Percentage of spread cells was obtained from three independent experiments. Statistical analyses were performed using MATLAB software. Two-sided (two sample) t-test was used for two group comparisons. Each group was compared with the control group unless specified otherwise. Representative micrographs are selected from at least two independent experiments.

[5] = target: T1, EO state of integrin α5β1 (Homo sapiens, UniProt P05556+P08648); assay: Intrinsic affinity for EO state of α5β1 stabilized by 12G10 Fab; format: binding; conditions: 2 µM 12G10 Fab versus basal
T1 construct: endogenous in cells; host or cells: K562 wild type
Description: (§1) provided as a Source Data file.
(§2) (3 pictures or pasted objects on this page, not shown here)

[6] = target: T2, EO state of integrin αVβ1 (Homo sapiens, UniProt P05556+P06756); assay: Intrinsic affinity for EO state of αVβ1 stabilized by 12G10 Fab; format: binding; conditions: 2 µM 12G10 Fab versus basal
T2 construct: expressed in transfected cells
Description: as §1, §2

[7] = tested on: extended-open β1 integrin on BJ-5ta cells; assay: β1 integrin activation: number and density of bound AF647-12G10 Fab on biotin-PEG-cholesterol immobilized cells; format: cell-based, human
Description: Cholesterol (CLS) linked to biotin with PEG (~13 nm) immobilizes cells on neutravidin and TGT-coated surfaces. b Cell images and AF647-12G10 Fab (20 nM) signal 1 h after seeding. Scale bar, 10 µm. c–e Cell area and 12G10 Fab signal were measured 30 min after seeding (n = 43, 55, 62, 69, 21, 29; 83, 59, 83, 92, 68, 62 cells from two independent experiments). c Close-contact enclosed area of cells. […] Fluorescent Fab signal was calibrated by analyzing stepwise signal increase due to nonspecific Fab binding to surfaces outside the area imaged with cells (Supplementary Fig. 4a). e Density of 12G10 Fab for each cell. Lines show mean ± SE. Two-sided t-test for p-values. Not significant (ns), p > 0.05.
The cells were gently harvested by washing in PBS for 1 min, incubating with 0.05% trypsin for 3 min, and then neutralizing with cell culture medium (FBS 10%). […] A Nikon Eclipse Ti microscope equipped with Xenon arc lamp, Nikon perfect focus system, custom total internal reflection fluorescence microscopy (TIRFM) module, and custom reflection interference contrast microscopy (RICM) module was driven by Elements software. […] Images were recorded using an electron-multiplying charge-coupled device (EMCCD; Andor iXon 888). […]

[8] = tested on: BJ-5ta cells; assay: Percentage of cells producing rupture signals on RGD-12pN with or without soluble cRGDfK; format: cell-based, human; conditions: RGD-12pN (BHQ2-Cy3, 100 nM); soluble ligand 100 µM; n = 4
Description: Source data are provided as a Source Data file. […]

T1 sequence (P08648 42-894 limits assumed): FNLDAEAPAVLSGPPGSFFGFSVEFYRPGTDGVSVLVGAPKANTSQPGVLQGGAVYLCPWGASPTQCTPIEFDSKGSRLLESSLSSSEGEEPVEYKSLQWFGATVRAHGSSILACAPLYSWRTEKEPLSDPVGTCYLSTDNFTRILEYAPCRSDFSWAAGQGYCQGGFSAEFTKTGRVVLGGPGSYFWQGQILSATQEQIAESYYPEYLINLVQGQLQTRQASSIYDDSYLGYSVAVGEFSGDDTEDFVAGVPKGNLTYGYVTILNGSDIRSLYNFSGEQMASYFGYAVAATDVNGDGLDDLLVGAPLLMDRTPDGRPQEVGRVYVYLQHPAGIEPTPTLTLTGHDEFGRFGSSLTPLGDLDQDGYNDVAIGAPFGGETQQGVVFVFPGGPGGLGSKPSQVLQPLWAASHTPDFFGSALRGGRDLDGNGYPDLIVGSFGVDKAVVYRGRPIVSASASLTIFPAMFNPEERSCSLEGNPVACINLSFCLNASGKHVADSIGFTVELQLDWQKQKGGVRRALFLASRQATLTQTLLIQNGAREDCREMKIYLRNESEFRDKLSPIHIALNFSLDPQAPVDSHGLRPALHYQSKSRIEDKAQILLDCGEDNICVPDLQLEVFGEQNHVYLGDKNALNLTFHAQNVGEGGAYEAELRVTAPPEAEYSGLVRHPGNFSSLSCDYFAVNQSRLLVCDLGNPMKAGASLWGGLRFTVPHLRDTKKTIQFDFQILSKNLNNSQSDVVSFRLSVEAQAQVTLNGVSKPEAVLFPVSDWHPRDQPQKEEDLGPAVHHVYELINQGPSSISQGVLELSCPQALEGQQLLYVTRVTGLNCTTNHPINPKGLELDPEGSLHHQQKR
T1 sequence (P08648 895-1049 partner limits assumed): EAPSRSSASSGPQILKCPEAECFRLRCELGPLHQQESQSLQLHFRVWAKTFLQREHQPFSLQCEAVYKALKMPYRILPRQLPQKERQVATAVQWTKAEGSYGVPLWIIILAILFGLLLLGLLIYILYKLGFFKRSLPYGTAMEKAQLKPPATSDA
T1 sequence (P05556 21-798): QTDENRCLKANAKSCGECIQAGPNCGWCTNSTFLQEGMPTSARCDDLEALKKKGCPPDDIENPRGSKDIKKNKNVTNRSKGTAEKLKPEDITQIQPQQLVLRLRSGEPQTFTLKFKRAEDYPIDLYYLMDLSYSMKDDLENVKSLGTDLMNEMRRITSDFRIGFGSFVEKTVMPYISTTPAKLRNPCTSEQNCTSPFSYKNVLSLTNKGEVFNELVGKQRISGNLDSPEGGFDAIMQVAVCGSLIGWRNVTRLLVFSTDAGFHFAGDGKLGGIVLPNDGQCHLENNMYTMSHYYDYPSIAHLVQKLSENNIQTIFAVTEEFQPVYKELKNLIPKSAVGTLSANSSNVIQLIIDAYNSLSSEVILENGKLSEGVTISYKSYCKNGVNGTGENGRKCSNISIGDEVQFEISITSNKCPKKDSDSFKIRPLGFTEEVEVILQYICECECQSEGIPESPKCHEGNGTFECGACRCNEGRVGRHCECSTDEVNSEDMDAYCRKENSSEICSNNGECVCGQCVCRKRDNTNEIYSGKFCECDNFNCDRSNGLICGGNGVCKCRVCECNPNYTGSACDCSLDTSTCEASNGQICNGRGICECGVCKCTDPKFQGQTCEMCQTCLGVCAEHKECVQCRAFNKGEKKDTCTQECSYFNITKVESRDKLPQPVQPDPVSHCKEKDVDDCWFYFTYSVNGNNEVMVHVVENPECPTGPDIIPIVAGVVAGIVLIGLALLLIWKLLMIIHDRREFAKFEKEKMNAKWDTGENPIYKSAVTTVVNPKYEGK
T2 sequence (P06756 31-889 limits assumed): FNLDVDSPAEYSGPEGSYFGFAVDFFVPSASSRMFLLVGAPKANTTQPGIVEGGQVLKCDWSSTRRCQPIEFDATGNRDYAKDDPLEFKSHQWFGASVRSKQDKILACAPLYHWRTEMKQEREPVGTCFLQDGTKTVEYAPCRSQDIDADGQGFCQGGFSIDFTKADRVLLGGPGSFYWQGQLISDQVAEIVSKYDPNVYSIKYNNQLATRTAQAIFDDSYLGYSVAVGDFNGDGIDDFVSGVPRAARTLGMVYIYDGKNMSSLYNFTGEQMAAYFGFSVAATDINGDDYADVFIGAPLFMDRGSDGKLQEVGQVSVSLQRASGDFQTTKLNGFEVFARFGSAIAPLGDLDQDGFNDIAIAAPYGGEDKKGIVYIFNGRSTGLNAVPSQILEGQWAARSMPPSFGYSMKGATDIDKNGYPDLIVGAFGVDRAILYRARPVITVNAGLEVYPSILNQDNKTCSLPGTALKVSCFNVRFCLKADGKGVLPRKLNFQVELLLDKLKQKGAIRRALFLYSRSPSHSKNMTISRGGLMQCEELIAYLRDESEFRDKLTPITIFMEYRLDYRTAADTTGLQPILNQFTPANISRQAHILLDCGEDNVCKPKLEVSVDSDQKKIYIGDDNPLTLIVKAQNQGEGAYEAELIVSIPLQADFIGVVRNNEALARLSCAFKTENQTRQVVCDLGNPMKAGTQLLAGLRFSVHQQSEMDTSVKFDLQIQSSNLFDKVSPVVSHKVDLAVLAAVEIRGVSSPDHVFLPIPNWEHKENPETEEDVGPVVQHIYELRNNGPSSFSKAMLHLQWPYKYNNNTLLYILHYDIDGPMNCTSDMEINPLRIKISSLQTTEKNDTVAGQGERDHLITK
T2 sequence (P06756 891-1048 partner limits assumed): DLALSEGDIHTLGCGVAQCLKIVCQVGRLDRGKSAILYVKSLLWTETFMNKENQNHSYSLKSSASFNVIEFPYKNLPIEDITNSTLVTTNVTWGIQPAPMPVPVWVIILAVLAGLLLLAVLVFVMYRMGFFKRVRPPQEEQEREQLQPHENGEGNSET
T2 sequence (P05556 21-798): as the sequence (P05556 21-798) above

In the case of GRRGDLATIHGGK [GRRGD-TGT], the “spreading on linear RGD-TGT (in words)” value [1] is reported as “no spreading for weak TGTs, with tension tolerance below 40 pN”.
For cyclic-ACRGDGWCGK (disulfide), the Kd [2] is given as 2.2 ± 0.5 nM.
In the case of fibronectin, the Kd [3] is listed as 1100 nM.
For `N=C(N)NCCC[C@@H]1NC(=O)[C@H](CCCCN)NC(=O)[C@@H](Cc2ccccc2)NC(=O)[C@H](CC(=O)O)NC(=O)CNC1=O` [cRGDfK, cyclo[Arg-Gly-Asp-D-Phe-Lys]], the “tension threshold for cell spreading” value ([4]; 1 h, nominal Ttol) was greater than 33 pN, the “spread cells (fraction), sheet 1c” value ([4]; TGT 1 nM) was 0.00565 and the “spread cells (fraction), sheet 1c” value ([4]; TGT 3 nM) was 0.03764. The “spread cells (fraction), sheet 1c” value ([4]; TGT 10 nM) was 0.4242, the “spread cells (fraction), sheet 1c” value ([4]; TGT 30 nM) was 0.8968 and the “spread cells (fraction), sheet 1c” value ([4]; TGT 100 nM) was 0.9524. For the same compound, the “Spread cells on TGT, 12pN” value ([4]; Ttol 12pN, 1 h, mean, SE in own column, n = 3 independent experiments, given as fraction) was 0.00901, the “Spread cells on TGT, 23pN” value ([4]; Ttol 23pN, 1 h, mean, n = 3, given as fraction) was 0.05 and the “Spread cells on TGT, 33pN” value ([4]; Ttol 33pN, 1 h, mean, n = 3, given as fraction) was 0.0778. The “Spread cells on TGT, 43pN” value ([4]; Ttol 43pN, 1 h, mean, n = 3, given as fraction) was 0.8932, the “Spread cells on TGT, 54pN” value ([4]; Ttol 54pN, 1 h, mean, n = 3, given as fraction) was 0.9524 and the “EO affinity over basal affinity, α5β1” value [5] was 7000 fold. The “EO affinity over basal affinity, αVβ1” value [6] was 60 fold, the “force needed for activation of β1 integrin to high affinity state” value [7] was “less than 12 pN” and the “rupture signal with soluble cRGDfK (in words)” value [8] was “No cellproduced a significant rupture signal”.
